Experiments:
maize seeds = test: Germination of maize seeds, comparison of surfactants (Examples 13-19); type: in vivo; details: maize seeds immersed 1 h in 0.75% solution
Description: The treatment of the maize seeds consists of immersing them 1 h in a solution comprising water alone (control batch) or in a solution composed of 98.25% water and 0.75% of a polyol derivative non-ionic surfactant (treated batch, Sub4). The seeds are next dried in a heating tunnel at 45° C. for one hour. Two batch repetitions of 16 seeds are deposited on Petri dishes containing a medium composed of 2% Agar Agar and 98% water. The Petri dishes are kept at ambient temperature and in darkness. Each day the number of seeds that have germinated (having a radicle) is counted. The treatment of the maize seeds consists of immersing them 1 h in a solution comprising water alone (control batch) or in a solution composed of 98.25% water and 0.75% of a polyol derivative non-ionic surfactant (treated batch, Sub1). The seeds are next dried in a heating tunnel at 45° C. for one hour. Two batch repetitions of 16 seeds are deposited on Petri dishes containing a medium composed of 2% Agar Agar and 98% water. The Petri dishes are kept at ambient temperature and in darkness. Each day the number of seeds that have germinated (having a radicle) is counted. The treatment of the maize seeds consists of immersing them 1 h in a solution comprising water alone (control batch) or in a solution composed of 98.25% water and 0.75% of a polyol derivative non-ionic surfactant (treated batch, Sub7). The seeds are next dried in a heating tunnel at 45° C. for one hour. Two batch repetitions of 16 seeds are deposited on Petri dishes containing a medium composed of 2% Agar Agar and 98% water. The Petri dishes are kept at ambient temperature and in darkness. Each day the number of seeds that have germinated (having a radicle) is counted. The treatment of the maize seeds consists of immersing them 1 h in a solution comprising water alone (control batch) or in a solution composed of 98.25% water and 0.75% of a polyol derivative non-ionic surfactant (treated batch, Sub2). The seeds are next dried in a heating tunnel at 45° C. for one hour. Two batch repetitions of 16 seeds are deposited on Petri dishes containing a medium composed of 2% Agar Agar and 98% water. The Petri dishes are kept at ambient temperature and in darkness. Each day the number of seeds that have germinated (having a radicle) is counted. The treatment of the maize seeds consists of immersing them 1 h in a solution comprising water alone (control batch) or in a solution composed of 98.25% water and 0.75% of a polyol derivative non-ionic surfactant (treated batch, Sub3). The seeds are next dried in a heating tunnel at 45° C. for one hour. Two batch repetitions of 16 seeds are deposited on Petri dishes containing a medium composed of 2% Agar Agar and 98% water. The treatment of the maize seeds consists of immersing them 1 h in a solution comprising water alone (control batch) or in a solution composed of 98.25% water and 0.75% of a polyol derivative non-ionic surfactant (treated batch, Sub6). The seeds are next dried in a heating tunnel at 45° C. for one hour. Two batch repetitions of 16 seeds are deposited on Petri dishes containing a medium composed of 2% Agar Agar and 98% water. The treatment of the maize seeds consists of immersing them 1 h in a solution comprising water alone (control batch) or in a solution composed of 98.25% water and 0.75% of a polyol derivative non-ionic surfactant (treated batch, Sub5). The seeds are next dried in a heating tunnel at 45° C. for one hour. Two batch repetitions of 16 seeds are deposited on Petri dishes containing a medium composed of 2% Agar Agar and 98% water. The Petri dishes are kept at ambient temperature and in darkness. Each day the number of seeds that have germinated (having a radicle) is counted.

Aspergillus niger = test: Fungicide effect by antibiogram type method; type: cell-based; details: positive control
Excerpt: In order to evaluate any impact of the sugar esters used according to the invention on microorganisms, the fungicide effect was searched for by an antibiogram type method. The method consists of: • spreading a solution contaminated with the mold Aspergillus niger on the surface of a Petri dish containing glucose gel growth medium with chloramphenicol. • arrange 4 sterile antibiogram disks of 6 mm diameter per Petri dish. • inoculate with 3 drops (0.071 g) of solution to test or control solution per disk. The dishes are next placed in the incubator at 25° C. for 5 days. Measurement of the inhibitory diameter is carried out every day.

Row | Compound | germination rate (maize seeds; D1) | germination rate (maize seeds; D2) | further results
1 | Sucrose palmitate | 28% | 78% | 
2 | Polyethoxylated sorbitan laurate | 25% | 78% | 
3 | Methylglucose dioleate | 18% | 65% | 
4 | CCCCCCCCCCCC(=O)N(C)C[C@H](O)[C@@H](O)[C@H](O)[C@H](O)CO [N-lauroyl-N-methyl glucamide] | 28% | 65% | 
5 | Glucose stearate | 34% | 78% | 
6 | CCCCCCCCCCO[C@@H]1O[C@H](CO)[C@@H](O)[C@H](O)[C@H]1O [decyl glucoside, Decyl glucoside] | 19% | 84% | 
7 | Sorbitan laurate | 31% | 78% | 
8 | Fc1ccc([C@]2(Cn3cncn3)O[C@H]2c2ccccc2Cl)cc1 (racemic) [Epoxiconazole, reference compound] |  |  | Inhibitory diameter (Aspergillus niger; D1): 0 mm; Inhibitory diameter (Aspergillus niger; D2): 32 mm; Inhibitory diameter (Aspergillus niger; D3): 30 mm; Inhibitory diameter (Aspergillus niger; D4): 30 mm; Inhibitory diameter (Aspergillus niger; D5): 29 mm

From patent US20200236933A1, “USE OF A NON-IONIC SURFACTANT WHICH IS A POLYOL DERIVATIVE AS A PLANT GROWTH STIMULATING AGENT OR AS AN ADJUVANT” (priority 2017, published 2020)
